For assay [1], the system named is HCV replicon I389luc-ubi-neo/NS3-3′/ET in ET (Huh-lucubineo-ET) cells. The experiment in a line: Replicon assay (Biological Example 2), luciferase readout. It counts as cell-based. Conditions: Hepatitis C virus. An outline of the steps:
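EC50 values come from Hill fits of % inhibition of replicon-driven firefly luciferase, relative to no-compound wells. Compounds were serially diluted (10 points, 3-fold, 0.1 nM–50 μM final, 0.5% DMSO) onto ET replicon cells and read after 48 h.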
(In general: A replicon is a self-replicating genome or part of one, used to study replication in cells.)

In the next assay the target is T1, HCV polymerase (Hepatitis C virus genotype 1b, UniProt Q9WMX2).
T1 construct: (His)6 (C); made in house; host or cells: XL-1 cells (E. coli, by own knowledge)
Description: Polymerase assay of Biological Example 1 (IC50 values of Table 3). It counts as biochemical. Conditions: IC50 values of Table 3, polymerase assay of Biological Example 1; read-out: NS5B-enzyme3.

Where [2] appears, read: ET cells, luciferase activity 48 hours after compound.

In the case of `CC(C)(C)OC(=O)N[C@H]1CCCN(c2ccc(S(=O)(=O)N3CC(=O)N(c4cc(-c5ccccc5)sc4C(=O)O)[C@H](C4CCCCC4)C3)cn2)C1` [Compound 158, 3-[(R)-4-((S)-3-tert-Butoxycarbonylamino-3,4,5,6-tetrahydro-2H-[1,2′]bipyridinyl-5′-sulfonyl)-2-cyclohexyl-6-oxo-piperazin-1-yl]-5-phenyl-thiophene-2-carboxylic acid], the IC50 in assay [1] (setting [2]) is not above 100 nM; on HCV polymerase it was 2 nM.

Consider `N[C@@H]1CCN(c2ccc(S(=O)(=O)N3CC(=O)N(c4cc(-c5ccccc5)sc4C(=O)O)[C@H](C4CCCCC4)C3)cn2)C1` [Compound 141, 3-{(R)-4-[6-((R)-3-Amino-pyrrolidin-1-yl)-pyridine-3-sulfonyl]-2-cyclohexyl-6-oxo-piperazin-1-yl}-5-phenyl-thiophene-2-carboxylic acid], for which the IC50 in assay [1] (setting [2]) was not above 100 nM; on HCV polymerase, 2 nM.

On to `CC(C)(C)C#Cc1cc(N2C(=O)[C@](C)(CC(O)CO)OC[C@H]2C2CCCCC2)c(C(=O)O)s1` (stereo partly drawn) [Compound 327, 3-[(2S,5R)-5-Cyclohexyl-2-(2,3-dihydroxy-propyl)-2-methyl-3-oxo-morpholin-4-yl]-5-(3,3-dimethyl-but-1-ynyl)-thiophene-2-carboxylic acid], for which the IC50 is not above 100 nM in assay [1] (setting [2]) and 4 nM on HCV polymerase.

Consider `CC(C)(C)C#Cc1cc(N2C(=O)[C@](C)(CCO)OC[C@H]2C2CCCCC2)c(C(=O)O)s1` [Compound 328, 3-[(2S,5R)-5-Cyclohexyl-2-(2-hydroxy-ethyl)-2-methyl-3-oxo-morpholin-4-yl]-5-(3,3-dimethyl-but-1-ynyl)-thiophene-2-carboxylic acid], for which the IC50 in assay [1] (setting [2]) was not above 100 nM; at HCV polymerase it was 6 nM.

As to `O=C(O)c1sc(-c2ccccc2)cc1N1C(=O)CN(S(=O)(=O)C2CCCC2)CC1C1CCCCC1` (centres unmarked) [Compound 42, 3-(2-Cyclohexyl-4-cyclopentanesulfonyl-6-oxo-piperazin-1-yl)-5-phenyl-thiophene-2-carboxylic acid], the IC50 was 100 to 5000 nM in assay [1] (between 100 nM and 5.0 uM); 148 nM at HCV polymerase.

Turning to `C[C@@H]1COCCN1c1ccc(S(=O)(=O)N2CC(=O)N(c3cc(-c4ccc(F)cc4)sc3C(=O)O)[C@H](C3CCCCC3)C2)cn1` [Compound 195, 3-{(R)-2-Cyclohexyl-4-[6-((R)-3-methyl-morpholin-4-yl)-pyridine-3-sulfonyl]-6-oxo-piperazin-1-yl}-5-(4-fluoro-phenyl)-thiophene-2-carboxylic acid], the IC50 in assay [1] (setting [2]) was not above 100 nM; at HCV polymerase it was 3 nM.

For the compound `CCN(CC)c1ccc(S(=O)(=O)N2CC(=O)N(c3cc(-c4ccccc4)sc3C(=O)O)[C@H](C3CCCCC3)C2)cn1` [Compound 177, 3-[(R)-2-Cyclohexyl-4-(6-diethylamino-pyridine-3-sulfonyl)-6-oxo-piperazin-1-yl]-5-phenyl-thiophene-2-carboxylic acid], the IC50 in assay [1] (setting [2]) is not above 100 nM; at HCV polymerase it was 2 nM.

`N[C@H]1CCN(c2ccc(S(=O)(=O)N3CC(=O)N(c4cc(-c5ccccc5)sc4C(=O)O)[C@H](C4CCCCC4)C3)cn2)C1` [Compound 144, 3-{(R)-4-[6-((S)-3-Amino-pyrrolidin-1-yl)-pyridine-3-sulfonyl]-2-cyclohexyl-6-oxo-piperazin-1-yl}-5-phenyl-thiophene-2-carboxylic acid]: the IC50 in assay [1] (between 100 nM and 5.0 uM) was 100 to 5000 nM; at HCV polymerase, 2 nM.

In the case of `CC(C)(C)C#Cc1cc(N2C(=O)[C@](C)(CC#N)OC[C@H]2C2CCCCC2)c(C(=O)O)s1` [Compound 312, 3-((2S,5R)-2-Cyanomethyl-5-cyclohexyl-2-methyl-3-oxo-morpholin-4-yl)-5-(3,3-dimethyl-but-1-ynyl)-thiophene-2-carboxylic acid], the IC50 in assay [1] (setting [2]) is not above 100 nM; on HCV polymerase, 2 nM.

In the case of `COc1ccc(S(=O)(=O)N2CC(=O)N(c3cc(-c4ccccc4)sc3C(=O)O)C(C3CCCCC3)C2)cc1OC` (centres unmarked) [Compound 102, 3-[2-Cyclohexyl-4-(3,4-dimethoxy-benzenesulfonyl)-6-oxo-piperazin-1-yl]-5-phenyl-thiophene-2-carboxylic acid], the IC50 in assay [1] (between 100 nM and 5.0 uM) is 100 to 5000 nM; on HCV polymerase, 4.5 nM.

Consider `O=C(O)c1sc(-c2ccc(C(F)(F)F)cc2)cc1N1C(=O)CCCC1C1CCCCC1` (centres unmarked) [Compound 117, 3-(2-Cyclohexyl-6-oxo-piperidin-1-yl)-5-(4-trifluoromethyl-phenyl)-thiophene-2-carboxylic acid], for which the IC50 is not below 5000 nM in assay [1] (setting [2]) and 739 nM at HCV polymerase.

For `CC1CCN(S(=O)(=O)N2CC(=O)N(c3cc(-c4ccccc4)sc3C(=O)O)C(C3CCCCC3)C2)CC1` (centres unmarked) [Compound 36, 3-[2-Cyclohexyl-4-(4-methyl-piperidine-1-sulfonyl)-6-oxo-piperazin-1-yl]-5-phenyl-thiophene-2-carboxylic acid], the IC50 in assay [1] (between 100 nM and 5.0 uM) is 100 to 5000 nM; on HCV polymerase it was 58 nM.

With `CC1(O)CCN(c2ccc(S(=O)(=O)N3CC(=O)N(c4cc(-c5ccc(F)cc5)sc4C(=O)O)[C@H](C4CCCCC4)C3)cn2)C1` (stereo partly drawn) [Compound 288, 3-{(R)-2-Cyclohexyl-4-[6-(3-hydroxy-3-methyl-pyrrolidin-1-yl)-pyridine-3-sulfonyl]-6-oxo-piperazin-1-yl}-5-(4-fluoro-phenyl)-thiophene-2-carboxylic acid], the figures for the IC50 (in assay [1] (setting [2]); on HCV polymerase) were not above 100 nM and 2 nM, respectively.

Take `O=C(O)c1sc(-c2ccccc2)cc1N1C(=O)CN(S(=O)(=O)CCc2ccccc2)CC1C1CCCCC1` (centres unmarked) [Compound 39, 3-[2-Cyclohexyl-6-oxo-4-(2-phenyl-ethanesulfonyl)-piperazin-1-yl]-5-phenyl-thiophene-2-carboxylic acid]: the IC50 in assay [1] (between 100 nM and 5.0 uM) is 100 to 5000 nM; at HCV polymerase, 51 nM.

`C[C@@H]1COCCN1c1ccc(S(=O)(=O)N2CC(=O)N(c3cc(-c4ccccc4)sc3C(=O)O)[C@H](C3CCCCC3)C2)cn1` [Compound 225, 3-{(R)-2-Cyclohexyl-4-[6-((R)-3-methyl-morpholin-4-yl)-pyridine-3-sulfonyl]-6-oxo-piperazin-1-yl}-5-phenyl-thiophene-2-carboxylic acid]: the IC50 in assay [1] (setting [2]) is not above 100 nM; on HCV polymerase it was 1 nM.

As for `CCc1ccc(S(=O)(=O)N2CC(=O)N(c3cc(C#CC(C)(C)C)sc3C(=O)O)[C@H](C3CCCCC3)C2)cc1` [Compound 256, 3-[(R)-2-Cyclohexyl-4-(4-ethyl-benzenesulfonyl)-6-oxo-piperazin-1-yl]-5-(3,3-dimethyl-but-1-ynyl)-thiophene-2-carboxylic acid], the results for the IC50 (in assay [1] (setting [2]); at HCV polymerase) were not above 100 nM and 1 nM, respectively.

Regarding `O=C(O)c1sc(-c2ccccc2)cc1N1C(=O)CN(S(=O)(=O)c2cccc(F)c2)CC1C1CCCCC1` (centres unmarked) [Compound 104, 3-[2-Cyclohexyl-4-(3-fluoro-benzenesulfonyl)-6-oxo-piperazin-1-yl]-5-phenyl-thiophene-2-carboxylic acid], the IC50 is 100 to 5000 nM in assay [1] (between 100 nM and 5.0 uM); 21 nM at HCV polymerase.

Consider `CC(C)(C)C#Cc1cc(N2C(=O)C(CCO)CC[C@H]2C2CCCCC2)c(C(=O)O)s1` (single isomer, unassigned) [Compound 343], for which the IC50 in assay [1] (setting [2]) was not above 100 nM; at HCV polymerase it was 1 nM.

For `O=C(O)c1sc(-c2ccccc2)cc1N1C(=O)CN(S(=O)(=O)c2ccc(N3CCCCC3)nc2)C[C@H]1C1CCCCC1` [Compound 179, 3-[(R)-2-Cyclohexyl-6-oxo-4-(3,4,5,6-tetrahydro-2H-[1,2′]bipyridinyl-5′-sulfonyl)-piperazin-1-yl]-5-phenyl-thiophene-2-carboxylic acid], the IC50 in assay [1] (setting [2]) is not above 100 nM; on HCV polymerase, 1 nM.

In the case of `CC(C)(C)C#Cc1cc(N2C(=O)[C@@H](O)CC[C@H]2C2CCCCC2)c(C(=O)O)s1` [Compound 322], the IC50 in assay [1] (setting [2]) was not above 100 nM; on HCV polymerase it was 6 nM.

Take `O=C(O)c1sc(-c2ccccc2)cc1N1C(=O)CN(Cc2ccc(N3CCCC3)nc2)C[C@H]1C1CCCCC1` [Compound 182, 3-[(R)-2-Cyclohexyl-6-oxo-4-(6-pyrrolidin-1-yl-pyridin-3-ylmethyl)-piperazin-1-yl]-5-phenyl-thiophene-2-carboxylic acid]: the IC50 is not above 100 nM in assay [1] (setting [2]) and 2 nM on HCV polymerase.

Consider `O=C(O)c1sc(-c2ccccc2)cc1N1C(=O)CN(S(=O)(=O)c2ccc(N3CCCC3)nc2)C[C@@H]1C1CCCCC1` [Compound 136, 3-[(S)-2-Cyclohexyl-6-oxo-4-(6-pyrrolidin-1-yl-pyridine-3-sulfonyl)-piperazin-1-yl]-5-phenyl-thiophene-2-carboxylic acid], for which the IC50 in assay [1] (between 100 nM and 5.0 uM) is 100 to 5000 nM; on HCV polymerase it was 260 nM.

With `O=C(O)c1sc(-c2ccc(F)cc2)cc1N1C(=O)CN(S(=O)(=O)c2ccc(N3CCOCC3)nc2)C[C@H]1C1CCCCC1` [Compound 189, 3-[(R)-2-Cyclohexyl-4-(6-morpholin-4-yl-pyridine-3-sulfonyl)-6-oxo-piperazin-1-yl]-5-(4-fluoro-phenyl)-thiophene-2-carboxylic acid], the IC50 in assay [1] (setting [2]) was not above 100 nM; at HCV polymerase, 1 nM.

As to `O=C(O)c1sc(-c2ccccc2)cc1N1C(=O)COCC1C1CCCCC1` (centres unmarked) [Compound 13, 3-(3-Cyclohexyl-5-oxo-morphoIin-4-yl)-5-phenyl-thiophene-2-carboxylic acid], the IC50 in assay [1] (between 100 nM and 5.0 uM) was 100 to 5000 nM; at HCV polymerase, 79 nM.

`CC(C)(C)C#Cc1cc(N2C(=O)C(CO)OC[C@H]2C2CCCCC2)c(C(=O)O)s1` (stereo partly drawn) [Compound 329, 3-((R)-5-Cyclohexyl-2-hydroxymethyl-3-oxo-morpholin-4-yl)-5-(3,3-dimethyl-but-1-ynyl)-thiophene-2-carboxylic acid]: the IC50 is not above 100 nM in assay [1] (setting [2]) and 5 nM on HCV polymerase.

The values are drawn from patent US9498483B2, “2,3,5-trisubstituted thiophene compounds and uses thereof” (priority 2010, dated 2016).
